Test results taken from ChEMBL document CHEMBL5331131, “Discovery of Acyl-Indole Derivatives as Pan-Serotype Dengue Virus NS4B Inhibitors” (J Med Chem, 2023).
Converted amounts (≈) assume the structure as drawn.

How the values were obtained:
dengue virus type 2 [1] = test: Antiviral activity against DENV-2 16681 expressing eGFP infected in african green monkey Vero cells incubated with cells for 24 hrs followed by viral infection measured after 3 days by laser microscopic analysis; format: functional, organism-based
[2] = Cytotoxicity against african green monkey Vero cells by ATPlite cell viability luminescence assay; format: toxicity, cell-based; settings: chlorocebus sabaeus
[3] = Microsomal stability in human liver microsomes assessed as intrinsic clearance preincubated for 5 mins followed by NADPH addition measured upto 60 mins by LC-MS/MS analysis; format: ADME, Microsome; settings: time < 65 min, read-out: CLH
[4] = Microsomal stability in rat liver microsomes assessed as intrinsic clearance preincubated for 5 mins followed by NADPH addition measured upto 60 mins by LC-MS/MS analysis; format: ADME, Microsome; settings: time < 65 min, read-out: CLH
[5] = Microsomal stability in mouse liver microsomes assessed as intrinsic clearance preincubated for 5 mins followed by NADPH addition measured upto 60 mins by LC-MS/MS analysis; format: ADME, Microsome; settings: time < 65 min, read-out: CLH
dengue virus type 4 = test: Antiviral activity against DENV-4 H241 infected in african green monkey Vero cells incubated for 24 hrs measured after 3 days post infection; format: functional, organism-based; settings: Dengue virus, H241, Vero
dengue virus type 2 [6] = test: Antiviral activity against DENV-2 16681 infected in african green monkey Vero cells incubated for 24 hrs measured after 3 days post infection; format: functional, organism-based; settings: Dengue virus, 16681, Vero
[7] = Clearance in Sprague-Dawley rat at 2.5 mg/kg, iv measured upto 24 hrs by LC-MS/MS analysis; format: ADME, organism-based; settings: in vivo
[8] = Volume of distribution at steady state in Sprague-Dawley rat at 2.5 mg/kg, iv measured upto 24 hrs by LC-MS/MS analysis; format: ADME, organism-based; settings: in vivo, read-out: Vdss
[9] = Half life in Sprague-Dawley rat at 2.5 mg/kg, iv measured by LC-MS/MS analysis; format: ADME, organism-based; settings: in vivo
[10] = Cmax in Sprague-Dawley rat at 10 mg/kg, po measured upto 24 to 48 hrs by LC-MS/MS analysis; format: ADME, organism-based; set-up: time upper 48 hrs, dose 10 mg/kg, time lower 24 hrs, route po; settings: in vivo
[11] = AUC last in Sprague-Dawley rat at 10 mg/kg, po measured upto 24 to 48 hrs by LC-MS/MS analysis; format: ADME, organism-based; set-up: time upper 48 hrs, dose 10 mg/kg, time lower 24 hrs, route po; settings: in vivo
[12] = Oral bioavailability in Sprague-Dawley rat at 10 mg/kg measured upto 24 to 48 hrs by LC-MS/MS analysis; format: ADME, organism-based; settings: in vivo, time 24-48 hrs
[13] = Kinetic solubility of the compound in aqueous buffer at pH 7.4 measured after 4 hrs by UPLC/UV analysis; format: physicochemical; settings: read-out: Kinetic_solubility
[14] = Kinetic solubility of the compound in aqueous buffer at pH 4 measured after 4 hrs by UPLC/UV analysis; format: physicochemical; settings: read-out: Kinetic_solubility
[15] = Kinetic solubility of the compound in aqueous buffer at pH 2 measured after 4 hrs by UPLC/UV analysis; format: physicochemical; settings: read-out: Kinetic_solubility
dengue virus type 1 = test: Antiviral activity against DENV-1 TC974#666 infected in african green monkey Vero cells incubated for 24 hrs measured after 3 days post infection; format: functional, organism-based; settings: TC974#666, Vero
dengue virus type 3 = test: Antiviral activity against DENV-3 H87 infected in african green monkey Vero cells incubated for 24 hrs measured after 3 days post infection; format: functional, organism-based
[16] = Clearance in CD-1 mouse at 2.5 mg/kg, iv measured for 0.12 to 24 hrs by LC-MS/MS analysis; format: ADME, organism-based; settings: in vivo, time 0.12-24 hrs

| SMILES | EC50 (dengue virus type 2 [1]; Dengue virus, 16681, Vero) [nM] | microsomal CLint [3] [µL/min/mg] | microsomal CLint [4] [µL/min/mg] | microsomal CLint [5] [µL/min/mg] | CC50 [2] [nM] | other results |
| --- | --- | --- | --- | --- | --- | --- |
| COc1cc(NC(C(=O)c2c[nH]c3cc(OC)c(F)cc23)c2ccc(F)cc2OC)cc(OCCO)c1 (single isomer, unassigned; (+)) | 5 | < 8 | < 8 | < 8 | > 8600 |  |
| COc1cc(NC(C(=O)c2c[nH]c3cc(F)ccc23)c2ccc(OC(F)(F)F)cc2OC)cc(OCCO)c1 (stereo not drawn) |  |  |  |  |  | EC50 (dengue virus type 4): 3430 nM; EC50 (dengue virus type 2 [6]): 22 nM |
| COc1cc(NC(C(=O)c2c[nH]c3cc(F)c(F)cc23)c2ccc(F)cc2OC)cc(OCCO)c1 (single isomer, unassigned; (+)) | 3 | < 8 | 44 | 10 | 6900 |  |
| COc1cc(NC(C(=O)c2c[nH]c3cc(OC)c(C)cc23)c2ccc(F)cc2OC)cc(OCCO)c1 (single isomer, unassigned; (+)) | 3 | < 8 | < 8 | < 8 | 7400 | clearance [7]: 13.6 mL/min/kg; Vd [8]: 6.5 L/kg; half-life [9]: 5.7 h; Cmax [10]: 350 ng/mL; AUC(0-t) [11]: 4660 ng·h/mL; bioavailability [12]: 40%; solubility kinetic at 4 h [13]: 5 µM (≈ 2.54 µg/mL); solubility kinetic at 4 h [14]: 5 µM (≈ 2.54 µg/mL); solubility kinetic at 4 h [15]: 65 µM (≈ 33.1 µg/mL) |
| COc1cc(NC(C(=O)c2c[nH]c3c(C)c(Cl)ccc23)c2ccc(F)cc2OC)cc(OCCO)c1 (single isomer, unassigned; (+)) | 1 | < 8 | < 8 | < 8 | 4100 | clearance [7]: 10.7 mL/min/kg; Vd [8]: 6.5 L/kg; half-life [9]: 7 h; Cmax [10]: 294 ng/mL; AUC(0-t) [11]: 7600 ng·h/mL; bioavailability [12]: 54%; solubility kinetic at 4 h [13]: < 0.1 µM; solubility kinetic at 4 h [14]: < 0.1 µM; solubility kinetic at 4 h [15]: 5 µM (≈ 2.56 µg/mL) |
| COc1cc(NC(C(=O)c2c[nH]c3cc(F)ccc23)c2ccc(F)cc2OC)cc(OCCO)c1 (stereo not drawn) | 4 | < 8 | 30 | 26 | 8400 | EC50 (dengue virus type 4): 870 nM; clearance [7]: 39.2 mL/min/kg; EC50 (dengue virus type 2 [6]): 9 nM; Vd [8]: 7.6 L/kg; half-life [9]: 3.2 h; Cmax [10]: 135 ng/mL; AUC(0-t) [11]: 1110 ng·h/mL; bioavailability [12]: 26%; solubility kinetic at 4 h [13]: 18 µM (≈ 8.68 µg/mL); solubility kinetic at 4 h [14]: 18 µM (≈ 8.68 µg/mL); solubility kinetic at 4 h [15]: 69 µM (≈ 33.3 µg/mL) |
| COc1cc(NC(C(=O)c2c[nH]c3cc(Cl)ccc23)c2ccc(F)cc2OC)cc(OCCO)c1 (stereo not drawn) | 2 | < 8 | 24 | < 8 | 5900 |  |
| COc1cc(NC(C(=O)c2c[nH]c3cc(F)ccc23)c2ccc(F)cc2)cc(OCCO)c1 (single isomer, unassigned; (+)) |  |  |  |  |  | EC50 (dengue virus type 2 [1]; vero): 11 nM |
| COc1cc(NC(C(=O)c2c[nH]c3cc(F)ccc23)c2ccc(F)cc2F)cc(OCCO)c1 (stereo not drawn) | 9 |  |  |  | 13000 |  |
| COc1cc(NC(C(=O)c2c[nH]c3c(F)cc(C)cc23)c2ccc(F)cc2OC)cc(OCCO)c1 (single isomer, unassigned; (+)) | 5 | 10 | 13 | 10 | 5500 |  |
| COc1cc(NC(C(=O)c2c[nH]c3cc(F)ccc23)c2ccc(F)cc2)cc(OCCO)c1 (stereo in doubt) |  | < 8 | < 8 | 26 | 13000 | EC50 (dengue virus type 2 [1]; vero): 15 nM; EC50 (dengue virus type 1): 49 nM; EC50 (dengue virus type 3): 420 nM; EC50 (dengue virus type 4): 870 nM; clearance [7]: 13.9 mL/min/kg; clearance [16]: 37.1 mL/min/kg; EC50 (dengue virus type 2 [6]): 12 nM; Vd [8]: 7.3 L/kg; half-life [9]: 6 h; Cmax [10]: 295 ng/mL; AUC(0-t) [11]: 4370 ng·h/mL; bioavailability [12]: 40% |
| COc1cc(NC(C(=O)c2c[nH]c3c(C)c(OC)ccc23)c2ccc(F)cc2OC)cc(OCCO)c1 (single isomer, unassigned; (+)) | 1 | < 8 | 17 | < 8 | 8900 |  |
| COc1cc(NC(C(=O)c2c[nH]c3ccccc23)c2ccccc2)cc(OCCO)c1 (stereo not drawn) | 49 | < 8 | 37 | 201 | 21000 | EC50 (dengue virus type 1): 180 nM; EC50 (dengue virus type 3): 1000 nM; EC50 (dengue virus type 4): 3900 nM; clearance [7]: 34.7 mL/min/kg; clearance [16]: 54 mL/min/kg; EC50 (dengue virus type 2 [6]): 32 nM |
| COc1cc(NC(C(=O)c2c[nH]c3cc(F)ccc23)c2ccc(C)cc2OC)cc(OCCO)c1 (stereo not drawn) |  |  |  |  |  | EC50 (dengue virus type 4): 960 nM; EC50 (dengue virus type 2 [6]): 7 nM |
| COc1cc(NC(C(=O)c2c[nH]c3cc(F)ccc23)c2ccc(F)cc2)cc(OCCO)c1 (stereo in doubt; (-)-7b) |  |  |  |  |  | EC50 (dengue virus type 2 [1]; vero): 93 nM |
| COc1cc(NC(C(=O)c2c[nH]c3cc(F)ccc23)c2ccc(C(F)(F)F)cc2OC)cc(OCCO)c1 (stereo not drawn) |  |  |  |  |  | EC50 (dengue virus type 4): 770 nM; EC50 (dengue virus type 2 [6]): 3 nM |
| COc1cc(NC(C(=O)c2c[nH]c3ccc(F)cc23)c2ccc(F)cc2)cc(OCCO)c1 (stereo not drawn) | 16 | < 8 | 10 | 50 | 14000 |  |
| COc1cc(NC(C(=O)c2c[nH]c3cc(F)ccc23)c2ccc(Cl)cc2OC)cc(OCCO)c1 (stereo in doubt; 24) |  |  |  |  |  | EC50 (dengue virus type 4): 360 nM; EC50 (dengue virus type 2 [6]): 1 nM |
| COc1cc(NC(C(=O)c2c[nH]c3c(Cl)c(OC)ccc23)c2ccc(F)cc2OC)cc(OCCO)c1 (stereo not drawn) | 1 | < 8 | 37 | 9 | 8600 |  |

Further lines, with some results ahead:

| EC50 (dengue virus type 2 [1]; Dengue virus, 16681, Vero) [nM] | microsomal CLint [3] [µL/min/mg] | microsomal CLint [4] [µL/min/mg] | microsomal CLint [5] [µL/min/mg] | SMILES | CC50 [2] [nM] | other results |
| --- | --- | --- | --- | --- | --- | --- |
| 2 | < 8 | < 8 | < 8 | COc1cc(NC(C(=O)c2c[nH]c3c(C)c(F)ccc23)c2ccc(F)cc2OC)cc(OCCO)c1 (single isomer, unassigned; (+)) | 5300 | clearance [7]: 16.4 mL/min/kg; Vd [8]: 8.5 L/kg; half-life [9]: 6.5 h; Cmax [10]: 573 ng/mL; AUC(0-t) [11]: 8290 ng·h/mL; bioavailability [12]: 88%; solubility kinetic at 4 h [13]: 2 µM (≈ 0.993 µg/mL); solubility kinetic at 4 h [14]: 3 µM (≈ 1.49 µg/mL); solubility kinetic at 4 h [15]: 34 µM (≈ 16.9 µg/mL) |
| 170 |  |  |  | COc1cc(NC(C(=O)c2c[nH]c3cc(F)ccc23)c2ccc(F)cc2OC(F)(F)F)cc(OCCO)c1 (stereo not drawn) | 7800 |  |
| 3 | < 8 | 8 | 8 | COc1cc(NC(C(=O)c2c[nH]c3c(F)c(F)ccc23)c2ccc(F)cc2OC)cc(OCCO)c1 (stereo not drawn) | 6600 |  |
| 6 |  |  |  | COc1cc(NC(C(=O)c2c[nH]c3cc(F)ccc23)c2ccc(F)cc2Cl)cc(OCCO)c1 (single isomer, unassigned; (-)) | 8200 |  |
| 41 |  |  |  | COc1cc(NC(C(=O)c2c[nH]c3cc(F)ccc23)c2ccc(F)cc2OCCO)cc(OCCO)c1 (stereo not drawn) | 14000 |  |
